According to patent US10857234B2, “Carbonic anhydrase IX inhibitor conjugates and uses thereof” (Endocyte, Inc., priority 2016, dated 2020):
pIC50: −log10 of the molar value.

Experiments:
CA IX [1] = molecular target: T1, CA IX (Homo sapiens, UniProt Q16790); assay: CA IX competitive binding assay (pH 6.8 vs. 7.4 buffers + Zn2+); settings: HT29 cells, 2 nM 125I-EC2674, 2 hr, 37° C.
T1 construct: endogenous in cells; host or cells: HT29 cells under hypoxia (1.3% O2)
Experimental: HT29 cells were seeded into 24-well plates at 0.5×10^6 cells per well in McCoy's 5A medium containing 10% fetal bovine serum (FBS) and were allowed to attach for 48 h in an incubator with an atmosphere of 5% CO2/95% air and 37° C. The evening prior to the binding assay, cells were placed in a Hypoxylab workstation set at 10 mm Hg (1.3% O2), 5% CO2, and 37° C. (hypoxic conditions). A single concentration of ^125I-CAIX radioligand was used (2 nM). Serial dilutions of competitors (EC2674 and EC2711) were prepared in McCoy's 5A medium/10% FBS. Binding solutions (500 μL) containing the radioligand and competitor dilutions were placed on the cells, and cells were incubated in the Hypoxylab workstation for 2 h under hypoxic conditions. Cells were then removed from the Hypoxylab and were washed 3 times with ice-cold PBS, pH 7.4. Cells were solubilized with 500 μL of 0.1N NaOH/0.1% Triton X-100. Cell lysates (450 μL) were counted in a Wizard2 gamma counter (Perkin Elmer). […]
Following the procedure for the previous competitive binding assay (Example 22), the CAIX Competitive Binding Assay (pH 6.8 vs. 7.4 Buffers+Zn^2+) was carried out with the following modifications from Example 22. […] Only the homologous cold-iodine labeled CAIX ligand, EC2674, was assessed for competitive binding.

CA IX [2] = molecular target: T1, CA IX; assay: CAIX competitive binding assay
Experimental: HT29 cells were seeded into 24-well plates at 0.5×10^6 cells per well in McCoy's 5A medium containing 10% fetal bovine serum (FBS) and were allowed to attach for 48 h in an incubator with an atmosphere of 5% CO2/95% air and 37° C. The evening prior to the binding assay, cells were placed in a Hypoxylab workstation set at 10 mm Hg (1.3% O2), 5% CO2, and 37° C. (hypoxic conditions). A single concentration of ^125I-CAIX radioligand was used (2 nM). Serial dilutions of competitors (EC2674 and EC2711) were prepared in McCoy's 5A medium/10% FBS. Binding solutions (500 μL) containing the radioligand and competitor dilutions were placed on the cells, and cells were incubated in the Hypoxylab workstation for 2 h under hypoxic conditions. Cells were then removed from the Hypoxylab and were washed 3 times with ice-cold PBS, pH 7.4. Cells were solubilized with 500 μL of 0.1N NaOH/0.1% Triton X-100. Cell lysates (450 μL) were counted in a Wizard2 gamma counter (Perkin Elmer). CPM values for each competitor concentration were normalized to values for radioligand binding in the absence of competitor.

SMILES	pIC50 (CA IX [1]; 1.3% O2, pH 6.8 buffer (20 mM BES, 140 mM NaCl, 1 mM ZnSO4))	pIC50 (CA IX [1]; 1.3% O2, pH 7.4 buffer (20 mM Tris, 140 mM NaCl, 1 mM ZnSO4))	pIC50 (CA IX [2]; HT29 cells, 2 nM 125I-EC2674, 2 hr, 37° C., 1.3% O2, McCoy's Medium+10% FBS, read-out: IC50)	pIC50 (CA IX [2])
NS(=O)(=O)c1ccc(NC(=O)CN(CCN(CC(=O)Nc2ccc(S(N)(=O)=O)cc2)CC(=O)N[C@@H](CNC(=O)CCc2cc(I)c(O)c(I)c2)C(=O)O)CC(=O)O)cc1 [EC2674]	7.20	7.18	6.07	–
CCCC(=O)OCN(C(=O)[C@@H](NC(=O)[C@H]1CCCCN1C)C(C)CC)[C@H](C[C@@H](OC(C)=O)c1nc(C(=O)N[C@@H](Cc2ccc(O)cc2)C[C@H](C)C(=O)NNC(=O)OCCSSC[C@H](NC(=O)[C@H](CC(=O)O)NC(=O)[C@H](CC(=O)O)NC(=O)[C@H](CC(=O)O)NC(=O)CN(CCN(CC(=O)O)CC(=O)Nc2ccc(S(N)(=O)=O)cc2)CC(=O)Nc2ccc(S(N)(=O)=O)cc2)C(=O)O)cs1)C(C)C (stereo partly shown) [EC2711]	–	–	–	8.05
